Some test systems named below: BT-549 breast; HCC-2998 colon; MALME-3M melanoma; SK-OV-3 ovarian; CAKI-1 renal; OVCAR-3 ovarian; RPMI-8226 leukemia; PC-3 prostate.
Test in all cases: growth of human tumour cells (NCI), 48 h

Where “and” joins values, the source holds several entries; their conditions need not be identical. Identical values can stand only once.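 Grown in 96-well plates, cells were treated for 48 hours with each compound at five concentrations. Insufficient inhibition: endpoint recorded as highest concentration tested. GI50 = concentration required for 50% inhibition of growth. TGI is the concentration that stops growth completely.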

As to `C=C1C(=O)O[C@H]2[C@H]1CC/C(COC(=O)NCCc1ccc(OC)cc1)=C\CC[C@@]1(C)O[C@@H]21`, the GI50 in the test on BT-549 breast is 2.12 µM; in the test on HCC-2998 colon, 2.48 µM; in the test on MALME-3M melanoma, 2.44 µM; with SK-OV-3 ovarian it was 23 µM; in the test on CAKI-1 renal, 2.52 µM; with OVCAR-3 ovarian, 2.19 µM. The GI50 was 2.85 µM in the test with RPMI-8226 leukemia and 8.08 µM in the test with PC-3 prostate. The TGI came out at 6.41 µM with BT-549 breast; 5.63 µM in the test on HCC-2998 colon; 6.7 µM with MALME-3M melanoma; 65.8 µM in the test on SK-OV-3 ovarian; 7.53 µM in the test with CAKI-1 renal; 5.25 µM in the test on OVCAR-3 ovarian. Moreover, the values for the TGI with RPMI-8226 leukemia and in the test with PC-3 prostate were 7.59 µM and 21.7 µM, respectively.
Consider `CCCCCCN1C(=O)/C(=c2\sc3n(c2=O)C2C(NN=3)N(CC)C(=O)N2CC)c2ccccc21` (centres undefined), for which the GI50 in the test with BT-549 breast is 6.34 µM; in the test with HCC-2998 colon, 5.83 µM; in the test with SK-OV-3 ovarian, 2.67 µM; with CAKI-1 renal, 1.82 µM; in the test with OVCAR-3 ovarian, 0.966 µM; with RPMI-8226 leukemia, 2.57 µM. Further, the GI50 with PC-3 prostate was 2.48 µM. The TGI was more than 50 µM in the test on BT-549 breast; more than 50 µM in the test on HCC-2998 colon; more than 50 µM in the test on SK-OV-3 ovarian; more than 50 µM with CAKI-1 renal; 2.06 µM in the test on OVCAR-3 ovarian; more than 50 µM in the test with RPMI-8226 leukemia. This compound gave a TGI with PC-3 prostate of more than 50 µM.
For the compound `Cc1ccc(NC(=O)c2ccnc(C(F)(F)F)c2)cc1-c1cc(OCCO)nc(N2CCOCC2)c1`, the GI50 was 5.87 µM in the test on BT-549 breast; 0.464 µM with HCC-2998 colon; 0.108 µM in the test with MALME-3M melanoma; 6.39 µM with SK-OV-3 ovarian; 1.62 µM in the test on CAKI-1 renal; 2.62 µM with OVCAR-3 ovarian. Moreover, the figures for the GI50 in the test with RPMI-8226 leukemia and in the test with PC-3 prostate were 2.7 µM and 3.24 µM, respectively. Also, the TGI is 22.9 µM in the test on BT-549 breast; 10 µM in the test on HCC-2998 colon; 0.66 µM in the test on MALME-3M melanoma; more than 100 µM with SK-OV-3 ovarian; 38.7 µM with CAKI-1 renal; 12.5 µM in the test with OVCAR-3 ovarian. Also, the TGI in the test with RPMI-8226 leukemia and in the test on PC-3 prostate was more than 100 µM in each case.
For the compound `COc1ccc(NC2=C(Sc3nc(C)cc(C)n3)C(=O)N(Cc3ccccc3)C2=O)cc1Cl`, the GI50 is 89.5 µM in the test on BT-549 breast; more than 160 µM in the test on HCC-2998 colon; more than 160 µM with MALME-3M melanoma; more than 160 µM with SK-OV-3 ovarian; more than 160 µM in the test on CAKI-1 renal; more than 160 µM in the test with OVCAR-3 ovarian. In addition, the figures for the GI50 in the test with RPMI-8226 leukemia and in the test on PC-3 prostate were 8.79 µM and 32.9 µM, respectively. Also, the TGI with BT-549 breast, with HCC-2998 colon, in the test with MALME-3M melanoma, with SK-OV-3 ovarian, in the test on CAKI-1 renal and with OVCAR-3 ovarian was more than 160 µM each time. In addition, the TGI with RPMI-8226 leukemia and in the test with PC-3 prostate was more than 160 µM each time.
For the compound `O=c1c2cc(Br)ccc2oc2ccc(Br)cc12`, the TGI with BT-549 breast, with HCC-2998 colon, in the test on MALME-3M melanoma, in the test on CAKI-1 renal, in the test on OVCAR-3 ovarian and in the test with RPMI-8226 leukemia was more than 100 µM in each case. Moreover, in the test on PC-3 prostate, the TGI is more than 100 µM.
Regarding `CC1C(=O)N=C2C(=CN(Cc3ccccc3)c3ccccc32)C(=O)N1C` (centres undefined), the TGI with BT-549 breast, in the test on HCC-2998 colon, in the test on MALME-3M melanoma, in the test with CAKI-1 renal, in the test with OVCAR-3 ovarian and in the test with RPMI-8226 leukemia was more than 100 µM in each case. In addition, in the test with PC-3 prostate, the TGI was more than 100 µM.
With `Clc1nc(Cl)c2ncn(C/C=C\Cn3cnc4c(Cl)nc(Cl)nc43)c2n1`, the GI50 was 2.03 µM in the test with BT-549 breast; 1.67 µM with HCC-2998 colon; 2.34 µM in the test on MALME-3M melanoma; 7.03 µM in the test on SK-OV-3 ovarian; 1.16 µM in the test with CAKI-1 renal; 1.37 µM in the test on OVCAR-3 ovarian. The GI50 in the test with PC-3 prostate was 2.05 µM. Besides, the TGI in the test with BT-549 breast stood at 5.01 µM; with HCC-2998 colon, 3.45 µM; in the test on MALME-3M melanoma, 4.26 µM; in the test with SK-OV-3 ovarian it was 20.3 µM; with CAKI-1 renal it was 2.41 µM; with OVCAR-3 ovarian, 2.69 µM. This compound also registered a TGI in the test on PC-3 prostate of 4.54 µM.
Take `CCCCCCC(C)CC(CCCCCC)NCCOC(=O)c1ccc([N+](=O)[O-])cc1` (centres undefined): the TGI in the test on BT-549 breast was 31.6 µM and 30.5 µM; in the test on HCC-2998 colon, 42.8 µM and 9.35 µM; with MALME-3M melanoma, 28 µM and 25.7 µM; in the test with SK-OV-3 ovarian, 31.8 µM and 30.4 µM; with CAKI-1 renal, 25.3 µM and 18.4 µM; in the test with OVCAR-3 ovarian, 23.6 µM and 17.5 µM. Further, in the test on RPMI-8226 leukemia, the TGI is 24 µM and 30.2 µM. Also, the GI50 in the test on CAKI-1 renal is 12.2 µM and 4.21 µM; in the test on OVCAR-3 ovarian, 7.59 µM and 2.95 µM.
Regarding `Cc1cccc(C(C)O)n1` (centres undefined), the TGI with BT-549 breast, in the test with HCC-2998 colon, in the test with MALME-3M melanoma, with SK-OV-3 ovarian, in the test with CAKI-1 renal and with OVCAR-3 ovarian was more than 100 µM in each case. Moreover, the TGI in the test with PC-3 prostate was more than 100 µM.
In the case of `Cn1c2ccccc2c2c(=O)n(CCCC(=O)NCC(=O)OC(=NC3CCCCC3)NC3CCCCC3)c3c(-c4ccccc4)nnn3c21`, the GI50 is 27 µM with BT-549 breast; 10.2 µM in the test on HCC-2998 colon; 47.2 µM in the test on MALME-3M melanoma; 32.1 µM in the test on CAKI-1 renal; 19.6 µM in the test with OVCAR-3 ovarian; 4.26 µM in the test on RPMI-8226 leukemia. Also, in the test with PC-3 prostate, the GI50 was 22.7 µM. The TGI was more than 100 µM with BT-549 breast; 26.8 µM with HCC-2998 colon; more than 100 µM with MALME-3M melanoma; more than 100 µM in the test on CAKI-1 renal; 96.2 µM in the test on OVCAR-3 ovarian; 21.2 µM in the test with RPMI-8226 leukemia. In addition, the TGI in the test with PC-3 prostate was more than 100 µM.
For `Nc1cc(N)c2nc(-c3ccccc3)c(Nc3ccc(F)cc3)nc2c1`, the GI50 in the test with BT-549 breast was 11.9 µM; in the test on SK-OV-3 ovarian, 40.7 µM; in the test on CAKI-1 renal it was 19.2 µM; in the test with OVCAR-3 ovarian it was 4.66 µM; in the test on RPMI-8226 leukemia, 4.64 µM; in the test on PC-3 prostate, 11.7 µM. For the same compound, the TGI was 27.2 µM with BT-549 breast; more than 100 µM in the test on SK-OV-3 ovarian; 40.4 µM with CAKI-1 renal; 17.8 µM in the test with OVCAR-3 ovarian; 34.6 µM with RPMI-8226 leukemia; more than 100 µM in the test with PC-3 prostate.
`CCOC(=O)C1CCC/C1=N\N=C(N)N` (centres undefined) (tested in a mixture with another compound): the TGI with BT-549 breast, in the test on HCC-2998 colon, in the test with MALME-3M melanoma, with SK-OV-3 ovarian, in the test on OVCAR-3 ovarian and in the test on RPMI-8226 leukemia was more than 100 µM throughout. In the test with PC-3 prostate, this compound gave a TGI of more than 100 µM.

The record behind these values is PubChem BioAssay (NCI).
